The values below come from patent publication US11098041B2 (Merck Patent GmbH, priority 2014, dated 2021).

Test [1] has as its system anti-IgM-induced expression of CD69 on CD19 positive cells (B cells) in human PBMCs. The test can be described thus: Assay C: PBMC IC50 assay (anti-IgM-induced CD69 expression). The format is cell-based. The conditions noted are these: anti-IgM stimulation. The method in brief:
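Freshly isolated human PBMCs (2.5×10^5/well) pretreated 1 h with compound, then stimulated overnight (~16-18 h) with goat F(ab′)2 anti-human IgM. CD69 on CD19+ B cells measured by flow cytometry; IC50 from percentage CD69+ B cells versus concentration.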

The target in test [2] is BTK C481S (His-TEV-hsBTK(328-659)(C481S)) (Homo sapiens (Human), UniProt Q06187, C481S). The test can be described thus: Assay B: microfluidic off-chip mobility shift assay against BTK C481S enzyme. The test is classed as biochemical. Particulars: BTK C481S mutant. The method in brief: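 Substrate-to-phosphopeptide conversion quantified by microfluidic mobility shift with laser-induced fluorescence; IC50 and efficacy from log[inhibitor] vs. % activity.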

The target in another test is full-length human BTK (Homo sapiens (Human), UniProt Q06187). The test can be described thus: Assay A: microfluidic off-chip mobility shift assay against BTK enzyme. The format is biochemical.

A value given as a limit tells only on which side of the number the result lay.

Sequence of BTK C481S (His-TEV-hsBTK(328-659)(C481S)) (Q06187 328-659 C481S): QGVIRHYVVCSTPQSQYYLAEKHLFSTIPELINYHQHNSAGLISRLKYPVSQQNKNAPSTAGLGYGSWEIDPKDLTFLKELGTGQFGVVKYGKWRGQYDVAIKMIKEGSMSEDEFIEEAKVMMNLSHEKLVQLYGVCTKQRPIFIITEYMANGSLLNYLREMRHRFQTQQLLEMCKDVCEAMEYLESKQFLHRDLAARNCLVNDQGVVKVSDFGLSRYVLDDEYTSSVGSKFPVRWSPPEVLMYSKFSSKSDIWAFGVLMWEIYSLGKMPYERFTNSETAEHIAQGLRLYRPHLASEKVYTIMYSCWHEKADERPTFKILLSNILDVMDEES
Sequence of full-length human BTK (Q06187 whole entry): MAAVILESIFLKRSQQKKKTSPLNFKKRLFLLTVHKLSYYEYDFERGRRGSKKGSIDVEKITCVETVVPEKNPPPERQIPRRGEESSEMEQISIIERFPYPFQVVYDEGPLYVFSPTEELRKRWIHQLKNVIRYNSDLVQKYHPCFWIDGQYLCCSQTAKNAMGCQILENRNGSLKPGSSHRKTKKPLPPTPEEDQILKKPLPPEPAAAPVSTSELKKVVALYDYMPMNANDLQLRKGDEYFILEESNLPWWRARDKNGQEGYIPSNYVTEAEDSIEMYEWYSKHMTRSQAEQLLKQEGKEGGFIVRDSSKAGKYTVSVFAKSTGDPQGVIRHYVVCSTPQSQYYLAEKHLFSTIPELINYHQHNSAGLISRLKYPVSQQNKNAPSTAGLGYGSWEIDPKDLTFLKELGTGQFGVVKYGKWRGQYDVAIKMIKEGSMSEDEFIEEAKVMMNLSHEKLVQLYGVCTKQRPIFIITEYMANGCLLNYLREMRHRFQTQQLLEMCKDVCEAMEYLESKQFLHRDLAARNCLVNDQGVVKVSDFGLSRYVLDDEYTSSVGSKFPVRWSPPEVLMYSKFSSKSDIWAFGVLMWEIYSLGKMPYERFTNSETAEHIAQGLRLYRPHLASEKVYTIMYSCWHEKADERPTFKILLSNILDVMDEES

Usually IC50 stands for the point on the concentration scale where inhibition reaches its midpoint. For the molecule `CC(C)(C)c1nc(C(=O)NCc2ccc(-c3ccnc4[nH]c(-c5ccc(N6CCCC6)cn5)nc34)cc2F)no1` [Example 80, 5-tert-Butyl-N-[(2-fluoro-4-[2-[5-(pyrrolidin-1-yl)pyridin-2-yl]-3H-imidazo[4,5-b]pyridin-7-yl]phenyl)methyl]-1,2,4-oxadiazole-3-carboxamide], the figures for the IC50 (in test [1]; in test [2]; at full-length human BTK) were 0.1 to 1 µM, less than 0.1 µM and less than 0.1 µM, respectively.
Turning to `CN1CC=C(c2ccc(-c3nc4c(-c5ccc(CNC(=O)c6noc(C(C)(C)C)n6)c(F)c5)ccnc4[nH]3)cc2)CC1` [Example 86, 5-tert-Butyl-N-[(2-fluoro-4-[2-[4-(1-methyl-1,2,3,6-tetrahydropyridin-4-yl)phenyl]-3H-imidazo[4,5-b]pyridin-7-yl]phenyl)methyl]-1,2,4-oxadiazole-3-carboxamide; Trifluoroacetic Acid], the IC50 (in test [1]; in test [2]; on full-length human BTK) was less than 0.1 µM in each case.
In the case of `Cn1cc(-c2nc3c(-c4cccc(NC(=O)N5CC(OC(C)(C)C)C5)c4CO)ccnc3[nH]2)cn1` [Example 91, 3-(tert-Butoxy)-N-[2-(hydroxymethyl)-3-[2-(1-methyl-1H-pyrazol-4-yl)-3H-imidazo[4,5-b]pyridin-7-yl]phenyl]azetidine-1-carboxamide], the values for the IC50 (in test [1]; in test [2]; at full-length human BTK) were 0.1 to 1 µM, less than 0.1 µM and less than 0.1 µM, respectively.
As to `Cn1cc(-c2nc3c(-c4ccc(C5(NC(=O)N6CC(OC(C)(C)C)C6)CC5)c(F)c4)ccnc3[nH]2)cn1` [Example 52, 3-(tert-Butoxy)-N-(1-[2-fluoro-4-[2-(1-methyl-1H-pyrazol-4-yl)-3H-imidazo[4,5-b]pyridin-7-yl]phenyl]cyclopropyl)azetidine-1-carboxamide], the results for the IC50 (in test [1]; in test [2]; at full-length human BTK) were 0.1 to 1 µM, less than 0.1 µM and less than 0.1 µM, respectively.
Regarding `Cn1cc(-c2nc3c(-c4cccc(NC(=O)c5ccc(C6CC6)nc5)c4CO)ccnc3[nH]2)cn1` [Example 49, 6-Cyclopropyl-N-[2-(hydroxymethyl)-3-[2-(1-methyl-1H-pyrazol-4-yl)-3H-imidazo[4,5-b]pyridin-7-yl]phenyl]pyridine-3-carboxamide], the half-maximal inhibitory concentration (IC50) was 0.1 to 1 µM in test [1], less than 0.1 µM in test [2] and less than 0.1 µM at full-length human BTK.
For the molecule `Cn1cc(-c2nc3c(-c4ccc(CNC(=O)c5nnc(C(C)(C)C)o5)c(F)c4)ccnc3[nH]2)cn1` [Example 111, 5-tert-Butyl-[1,3,4]oxadiazole-2-carboxylic acid 2-fluoro-4-[2-(1-methyl-1H-pyrazol-4-yl)-3H-imidazo[4,5-b]pyridin-7-yl]-benzylamide], the figures for the IC50 (in test [1]; in test [2]; on full-length human BTK) were 0.1 to 1 µM, less than 0.1 µM and less than 0.1 µM, respectively.
As to `O=C1c2c(F)cc(C3CC3)cc2OCCN1c1cccc(-c2ccnc3[nH]c(-c4cccnc4)nc23)c1CO` [Example 2, 8-Cyclopropyl-6-fluoro-4-[2-(hydroxymethyl)-3-[2-(pyridin-3-yl)-3H-imidazo[4,5-b]pyridin-7-yl]phenyl]-2,3,4,5-tetrahydro-1,4-benzoxazepin-5-one], the IC50 in test [1] was 1 to 5 µM; in test [2] it was less than 0.1 µM; on full-length human BTK it was less than 0.1 µM.
In the case of `CN(C)c1ccc(-c2nc3c(-c4ccc(CNC(=O)N5CC(OC(C)(C)C)C5)c(F)c4)ccnc3[nH]2)nc1` [Example 90, 3-(tert-Butoxy)-N-[(4-[2-[5-(dimethylamino)pyridin-2-yl]-3H-imidazo[4,5-b]pyridin-7-yl]-2-fluorophenyl)methyl]azetidine-1-carboxamide], the IC50 was 1 to 5 µM in test [1], 0.1 to 1 µM in test [2] and less than 0.1 µM on full-length human BTK.
Turning to `CN1CCN(c2ccc(-c3nc4c(-c5ccc(CNC(=O)c6noc(C(C)(C)C)n6)c(F)c5)ccnc4[nH]3)nc2)CC1` [Example 79, 5-tert-Butyl-N-[(2-fluoro-4-[2-[5-(4-methylpiperazin-1-yl)pyridin-2-yl]-3H-imidazo[4,5-b]pyridin-7-yl]phenyl)methyl]-1,2,4-oxadiazole-3-carboxamide], the IC50 (in test [1]; in test [2]; at full-length human BTK) was less than 0.1 µM in each case.
`COc1ccc(-c2nc3c(-c4ccc(CNC(=O)c5ccc(C6CC6)cc5)c(F)c4)ccnc3[nH]2)cc1` [Example 63, 4-Cyclopropyl-N-([2-fluoro-4-[2-(4-methoxyphenyl)-3H-imidazo[4,5-b]pyridin-7-yl]phenyl]methyl) benzamide]: the IC50 in test [1] is 1 to 5 µM; in test [2], less than 0.1 µM; at full-length human BTK, less than 0.1 µM.
On to `Cn1cc(-c2nc3c(-c4ccc(C(C)(C)NC(=O)c5nnc(C(C)(C)C)o5)c(F)c4)ccnc3[nH]2)cn1` [Example 104, 5-tert-Butyl-[1,3,4]oxadiazole-2-carboxylic acid (1-{2-fluoro-4-[2-(1-methyl-1H-pyrazol-4-yl)-3H-imidazo[4,5-b]pyridin-7-yl]-phenyl}-1-methyl-ethyl)-amide], for which the figures for the IC50 (in test [1]; in test [2]; at full-length human BTK) were 1 to 5 µM, less than 0.1 µM and less than 0.1 µM, respectively.
Turning to `CN(C)c1nc(C(=O)NCc2ccc(-c3ccnc4[nH]c(-c5cnn(C)c5)nc34)cc2F)no1` [Example 57, 5-(Dimethylamino)-N-(2-fluoro-4-(2-(1-methyl-1H-pyrazol-4-yl)-3H-imidazo[4,5-b]pyridin-7-yl)benzyl)-1,2,4-oxadiazole-3-carboxamide 2,2,2-trifluoroacetate], the IC50 was 1 to 5 µM in test [1], less than 0.1 µM in test [2] and less than 0.1 µM at full-length human BTK.
For `CC(C)(C)c1ccc(C(=O)NCc2ccc(-c3ccnc4[nH]c(-c5ccc(C6=CCNCC6)cc5)nc34)cc2F)cc1` [Example 66, 4-tert-Butyl-N-[(2-fluoro-4-[2-[4-(1,2,3,6-tetrahydropyridin-4-yl)phenyl]-3H-imidazo[4,5-b]pyridin-7-yl]phenyl)methyl]benzamide], the IC50 in test [1] is 0.1 to 1 µM; in test [2] it was less than 0.1 µM; on full-length human BTK, less than 0.1 µM.
Regarding `CN(C)c1ccc(-c2nc3c(-c4ccc(C5(NC(=O)c6ccc(C(C)(C)C)cc6)CC5)cc4)ccnc3[nH]2)nc1` [Example 54, 4-tert-Butyl-N-[1-(4-[2-[5-(dimethylamino)pyridin-2-yl]-3H-imidazo[4,5-b]pyridin-7-yl]phenyl)cyclopropyl]benzamide], the values for the IC50 (in test [1]; in test [2]; at full-length human BTK) were 0.1 to 1 µM, 0.1 to 1 µM and less than 0.1 µM, respectively.
`CC(C)(C)c1nc(C(=O)NCc2ccc(-c3ccnc4[nH]c(-c5ccc(C(O)CO)cn5)nc34)cc2F)no1` (stereo not drawn) [Example 76, 5-tert-Butyl-N-[(4-[2-[5-(1,2-dihydroxyethyl)pyridin-2-yl]-3H-imidazo[4,5-b]pyridin-7-yl]-2-fluorophenyl)methyl]-1,2,4-oxadiazole-3-carboxamide]: the IC50 (in test [1]; in test [2]; at full-length human BTK) was less than 0.1 µM in each case.
For the molecule `Cn1cc(-c2nc3c(-c4ccc(CNC(=O)CCCC(C)(C)C)c(F)c4)ccnc3[nH]2)cn1` [Example 14, 5,5-Dimethyl-hexanoic acid 2-fluoro-4-[2-(1-methyl-1H-pyrazol-4-yl)-3H-imidazo[4,5-b]pyridin-7-yl]-benzylamide], the half-maximal inhibitory concentration (IC50) in test [1] is 1 to 5 µM; in test [2] it was less than 0.1 µM; on full-length human BTK, less than 0.1 µM.
For the molecule `Cn1cc(-c2nc3c(-c4ccc(C5(NC(=O)c6noc(C(C)(C)C)n6)CC5)cc4)ccnc3[nH]2)cn1` [Example 53, 5-tert-Butyl-N-(1-[4-[2-(1-methyl-1H-pyrazol-4-yl)-3H-imidazo[4,5-b]pyridin-7-yl]phenyl]cyclopropyl)-1,2,4-oxadiazole-3-carboxamide], the IC50 (in test [1]; in test [2]; on full-length human BTK) was less than 0.1 µM each time.
For the molecule `Cn1cc(-c2nc3c(-c4ccc(CNC(=O)c5nnc(C(C)(C)C)o5)cc4)ccnc3[nH]2)cn1` [Example 109, 5-tert-Butyl-[1,3,4]oxadiazole-2-carboxylic acid 4-[2-(1-methyl-1H-pyrazol-4-yl)-3H-imidazo[4,5-b]pyridin-7-yl]-benzylamide], the figures for the IC50 (in test [1]; in test [2]; on full-length human BTK) were 1 to 5 µM, 1 to 5 µM and less than 0.1 µM, respectively.
With `CC(C)(C)c1nc(C(=O)NCc2ccc(-c3ccnc4[nH]c(-c5cnn(CCN)c5)nc34)cc2F)no1` [Example 72, N-[(4-[2-[1-(2-aminoethyl)-1H-pyrazol-4-yl]-3H-imidazo[4,5-b]pyridin-7-yl]-2-fluorophenyl)methyl]-5-tert-butyl-1,2,4-oxadiazole-3-carboxamide], the values for the IC50 (in test [1]; in test [2]; on full-length human BTK) were 0.1 to 1 µM, 0.1 to 1 µM and less than 0.1 µM, respectively.
Turning to `CN(C)c1ccc(-c2nc3c(-c4cccc(N5CCOc6cc(C7CC7)cc(F)c6C5=O)c4CO)ccnc3[nH]2)nc1` [Example 41, 8-cyclopropyl-4-(3-[2-[5-(dimethylamino)pyridin-2-yl]-3H-imidazo[4,5-b]pyridin-7-yl]-2-(hydroxymethyl)phenyl)-6-fluoro-2,3,4,5-tetrahydro-1,4-benzoxazepin-5-one], the results for the IC50 (in test [1]; in test [2]; at full-length human BTK) were 1 to 5 µM, less than 0.1 µM and less than 0.1 µM, respectively.
Consider `COc1ccc(-c2nc3c(-c4ccc(CN5CCOc6cc(C7CC7)cc(F)c6C5=O)c(F)c4)ccnc3[nH]2)nc1` [Example 40, 8-Cyclopropyl-6-fluoro-4-([2-fluoro-4-[2-(5-methoxypyridin-2-yl)-3H-imidazo[4,5-b]pyridin-7-yl]phenyl]methyl)-2,3,4,5-tetrahydro-1,4-benzoxazepin-5-one], for which the results for the IC50 (in test [1]; in test [2]; at full-length human BTK) were 0.1 to 1 µM, less than 0.1 µM and less than 0.1 µM, respectively.
